Columns and labels:
[1] = molecular target: Free fatty acid receptor 4 (Homo sapiens, UniProt Q5NUL3); assay: Agonist activity at human GPR120 short splice variant expressed in HEK293 cells assessed as increase in intracellular calcium flux incubated for 30 mins measured for 300 secs at 1 sec interval by Fluo-4 NW dye based FLIPR assay; assay type: functional, cell-based
[2] = Metabolic stability in human liver microsomes assessed as parent compound remaining measured at 10 mins; assay type: ADME, microsome; details: read-out: Stability
[3] = Metabolic stability in mouse liver microsomes assessed as parent compound remaining measured at 10 mins; assay type: ADME, microsome; details: for remaining at 10 min: liver microsomes, read-out: Stability
[4] = Metabolic stability in rat liver microsomes assessed as parent compound remaining measured at 10 mins; assay type: ADME, microsome
Mus musculus = assay: Antidiabetic activity in diet-induced obese C57BL/6 mouse assessed as reduction in plasma glucose delta AUC level at 1 mg/kg, po administered 30 mins prior to glucose challenge measured 90 mins post glucose challenge by OGTT relative to control; assay type: functional; parameters: scale not given: the % may be the effect or the level left
[5] = molecular target: T1, Free fatty acid receptor 4 (Homo sapiens, UniProt Q5NUL3); assay: Agonist activity at PK-tagged human GPR120 long isoform expressed in CHOK1 cells co-expressing EA-tagged beta-arrestin assessed as beta-gal enzyme complex formation after 90 mins by enzyme fragment complementation assay; assay type: cell-based
T1 sequence (Q5NUL3 whole entry): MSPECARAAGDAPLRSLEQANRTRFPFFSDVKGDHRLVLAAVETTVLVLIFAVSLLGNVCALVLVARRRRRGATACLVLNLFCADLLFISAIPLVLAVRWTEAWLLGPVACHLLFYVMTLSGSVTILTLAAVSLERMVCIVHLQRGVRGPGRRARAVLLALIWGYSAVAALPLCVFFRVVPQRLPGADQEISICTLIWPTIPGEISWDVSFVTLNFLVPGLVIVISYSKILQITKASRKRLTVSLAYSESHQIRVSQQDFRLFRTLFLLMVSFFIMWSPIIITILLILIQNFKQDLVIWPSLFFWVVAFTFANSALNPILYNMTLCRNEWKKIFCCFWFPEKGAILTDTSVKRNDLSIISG

Structure (SMILES) | EC50 [1] [nM] | further results
Cc1c(CCC(=O)O)ccc(OCc2c(-c3ccc(Cl)cc3)nsc2C(F)(F)F)c1C | 155 | remaining at 10 min [2]: 104%; Stability ([3]; microsomes, 10 min): 127%; Stability ([4]; microsomes, 10 min): 133%
CCc1ccc(-c2nsc(CC)c2COc2ccc(CCC(=O)O)c(C)c2C)cc1 | 680 | 
CCc1ccc(-c2snc(Cl)c2COc2ccc(CCC(=O)O)c(C)c2C)cc1 | 56 | remaining at 10 min [2]: 76%; remaining at 10 min [3]: 102%
O=C(O)CCc1cc(F)c(OCc2c(-c3ccc(Cl)cc3)nsc2C(F)(F)F)c(F)c1F | 104 | 
CCc1ccc(-c2nsc(C(C)C)c2COc2ccc(CCC(=O)O)c(C)c2C)cc1 | 1640 | 
N#C[C@@H]1C[C@@H]2C[C@@H]2N1C(=O)[C@@H](N)C12CC3CC(CC(O)(C3)C1)C2 [SAXAGLIPTIN ANHYDROUS] |  | Activity (Mus musculus): 87%
Cc1cc(OCc2c(-c3ccc(Cl)cc3)nsc2C(F)(F)F)c(F)cc1CCC(=O)O | 121 | 
CCc1cc(CCC(=O)O)ccc1OCc1c(-c2ccc(Cl)cc2)nsc1C(F)(F)F | 202 | 
CCc1ccc(-c2nsc(C(F)(F)F)c2COc2c(F)cc(CCC(=O)O)cc2F)cc1 | 34 | 
Cc1snc(-c2ccc(Cl)cc2)c1COc1ccc(CCC(=O)O)c(C)c1C | 106 | EC50 [5]: 128 nM; remaining at 10 min [2]: 74%; remaining at 10 min [3]: 35%; remaining at 10 min ([4]; liver microsomes, read-out: Stability): 57%
CCc1ccc(-c2nsc(C(F)(F)C(F)(F)F)c2COc2ccc(CCC(=O)O)c(C)c2C)cc1 | 332 | 
CCc1ccc(-c2nsc(C(F)(F)F)c2COc2ccc(CCC(=O)O)c(C)c2C)cc1 | 120 | EC50 [5]: 210 nM
Cc1c(CCC(=O)O)ccc(OCc2c(C(F)(F)F)nsc2-c2ccc(Cl)cc2)c1C | 94 | EC50 [5]: 105 nM
O=C(O)CCc1ccc(OCc2c(-c3ccc(Cl)cc3)nsc2C(F)(F)F)cc1C(F)(F)F | 236 | 
Cc1c(CCC(=O)O)cc(F)c(OCc2c(-c3ccc(Cl)cc3)nsc2C(F)(F)F)c1F | 99 | 
